Measurements: US20040171688A1, “Carboxylic acids and derivatives thereof and pharmaceutical compositions containing them” (priority 1997, published 2004)

Experiments:
HNF-4α = biological target: T1, HNF-4α (Rattus norvegicus, UniProt P22449); experiment: Transfection assay: COS-7 cells cotransfected with (C3P)3-TK-CAT reporter and pSG5-HNF-4α; type: cell-based; parameters: expressed in transfected cells; host or cells: COS-7; conditions: free fatty acids added to culture medium of COS-7 cells (FIG. 4a)
T1 sequence (P22449 1-464 isoform P22449-2): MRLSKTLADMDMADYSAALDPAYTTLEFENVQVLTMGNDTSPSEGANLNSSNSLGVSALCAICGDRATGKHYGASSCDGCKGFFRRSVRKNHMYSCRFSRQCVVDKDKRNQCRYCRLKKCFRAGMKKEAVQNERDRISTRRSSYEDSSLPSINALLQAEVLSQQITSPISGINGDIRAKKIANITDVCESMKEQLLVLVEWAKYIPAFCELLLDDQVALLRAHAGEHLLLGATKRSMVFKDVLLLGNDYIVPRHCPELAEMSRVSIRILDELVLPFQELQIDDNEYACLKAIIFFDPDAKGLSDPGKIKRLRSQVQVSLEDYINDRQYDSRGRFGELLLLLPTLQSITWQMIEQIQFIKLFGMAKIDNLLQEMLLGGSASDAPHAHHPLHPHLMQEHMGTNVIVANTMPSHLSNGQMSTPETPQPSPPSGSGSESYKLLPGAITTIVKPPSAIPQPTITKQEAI
Experimental: a. […] Fold induction of CAT activity by transfected HNF-4I is determined by evaluating CAT activity in the presence of pSG5-HNF-4I as compared with pSG5 plasmid and as function of respective fatty acids added to the culture medium as indicated. The figure summarizes 3-4 independent experiments for each fatty acid. Mean ± S.E.
b. […] Fold induction refers to CAT activity in cells incubated with 3,3,12,12-tetramethyl-tetradecanedioic acid (∘), 3,3,14,14-tetramethyl-hexadecanedioic acid (□) and 3,3,16,16-tetramethyl-octadecanedioic acid (Δ) proligands normalized to the activity in cells incubated in the absence of added proligands.
COS-7 cells cotransfected for 6 h with the (C3P)3-TK-CAT reporter plasmid (5 μg) and with either the pSG5-HNF-4α expression plasmid ([…]) or the pSG5 plasmid (0.025 μg) added by calcium phosphate precipitation were cultured in serum free medium with fatty acids (complexed with albumin in a molar ratio of 6:1) added as indicated. β-Galactosidase expression vector pRSGAL (1 μg) added to each precipitate served as an internal control for transfection. The (C3P)3-TK-CAT construct was prepared by inserting a synthetic oligonucleotide encompassing the (−87/−66) Apo CIII promoter sequence (5′-[…]-3′) flanked by HindIII restriction site into pBLCAT2^47 upstream of the −105 bp thymidine kinase promoter. The construct containing three copies of the synthetic oligonucleotide in the direct orientation was selected and confirmed by sequencing.
The intracellular effect of HNF-4α ligands on HNF-4α mediated transcription was evaluated in COS-7 cells cotransfected with an expression vector for HNF-4α and with a CAT reporter plasmid driven by a thymidine kinase promoter and enhanced by one to three C3P copies of the apo CIII gene promoter. Transfected cells were incubated in the presence of free fatty acids and xenobiotic amphipathic carboxylates representing agonistic or antagonistic HNF-4α proligands.

[1] = dietary fatty acid; cited from earlier work
[2] = dietary fatty acid; cited from earlier work; remark: listed apart in the source

SMILES	effect on HNF-4α dependent transcription (CAT activity) (HNF-4α)	factor VII content and blood coagulability [1]	blood lipids [2]	plasma VLDL-, LDL- and HDL-cholesterol [2]
CCCCCCCCCCCCCCCCCC(=O)O [stearic(18:0), stearic(18:0) acid]	suppressive	decrease	lowering	
CCCCCCCCCCCCCC(=O)O [myristic(14:0), myristic(14:0) acid]	dose dependent activation			increase
